The source of these data is US20060094783A1 (Tava Pharmaceutical Industries, Ltd., priority 1990, published 2006).

Data set [1] concerns Metrazol seizure threshold in mice. The following applies: Kupferberg 1989; cited from earlier work.
Data set [2] addresses T1, MAO-A (Rattus norvegicus, UniProt P21396).
T1 construct: MAO activity determined in brain and liver; from tissue; host or cells: brain and liver of male Sprague-Dawley-derived rats
T1 sequence (P21396 1-526): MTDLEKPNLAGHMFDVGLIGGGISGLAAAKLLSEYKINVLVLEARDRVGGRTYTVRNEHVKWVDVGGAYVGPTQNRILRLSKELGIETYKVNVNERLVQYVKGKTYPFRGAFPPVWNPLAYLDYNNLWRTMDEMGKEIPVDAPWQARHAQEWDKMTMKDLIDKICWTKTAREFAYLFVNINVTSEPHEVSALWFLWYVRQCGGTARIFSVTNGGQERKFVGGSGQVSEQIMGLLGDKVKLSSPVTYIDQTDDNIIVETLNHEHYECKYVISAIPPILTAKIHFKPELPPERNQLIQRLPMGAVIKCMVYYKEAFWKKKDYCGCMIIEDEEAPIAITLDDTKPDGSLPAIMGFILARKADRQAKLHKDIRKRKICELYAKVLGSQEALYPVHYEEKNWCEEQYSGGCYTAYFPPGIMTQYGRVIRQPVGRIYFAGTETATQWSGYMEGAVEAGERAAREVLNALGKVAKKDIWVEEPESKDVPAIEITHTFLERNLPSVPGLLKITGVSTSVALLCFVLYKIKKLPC
In words: Rat brain MAO inhibition by propargylamines (Table IA), A form. The settings on record: between the two epimers. It is filed as biochemical.

The test system of data set [3] is rabbit jejunum. In words: Tyramine potentiation in isolated jejunum preparation. As to the method:
Peripheral effects of the hydrochloride salts of the enantiomers of PAI were determined in isolated rabbit or guinea-pig small intestine. These observations provide useful information on their relative peripheral side effects in humans. The first point of contact of the subject with an orally administered drug is the gastrointestinal tract where concentrations of the drug are much higher than after absorption and distribution. In the case of PAI hydrochloride (Mw=208), a 10 mg oral dose contained in a liquid volume of about 100 ml would be equivalent to a concentration of about 0.5 mM. In contrast, the therapeutic plasma concentration of (R)-PAI hydrochloride is in the nanomolar range.

Data set [4] concerns maximal electroshock seizures in mice. In words: Maximal electroshock test (MES test) in mice. It is filed as in vivo, mouse. The following applies: i.p. The text has this: (§1) The MES test is a classical model to indicate efficacy for partial and generalized seizures in humans. The agents' mechanism of action is via their ability to prevent the spread of seizures. Some agents, however, that prevent seizure spread have the side effect of lowering seizure threshold. These agents therefore have both proconvulsive and anticonvulsive side effects.
A general note: In the maximal electroshock model the usual endpoint is tonic extension of the hind limbs.

The test system of data set [5] is guinea-pig ileum. In words: Antagonism of bethanechol-induced (fixed dose) contractions of guinea-pig ileum. The following applies: bethanechol 0.8 μM.
The test system of data set [6] is guinea-pig ileum. In words: Antagonism of bethanechol-induced contractions of guinea pig ileum in presence of 400 μM PAI HCl enantiomer. The following applies: 400 μM enantiomer.
Data set [7] concerns guinea-pig ileum. In words: Antagonism of histamine-induced contractions of guinea-pig ileum. The following applies: histamine 40 nM.
The test system of data set [8] is maximal electroshock seizures in rats. In words: Maximal electroshock test (MES test) in rats. It is filed as in vivo, rat. The following applies: p.o., 50 mg/kg.
Text: as §1

Data set [9] addresses T2, MAO-B (Rattus norvegicus, UniProt P19643).
T2 sequence (P19643 1-520): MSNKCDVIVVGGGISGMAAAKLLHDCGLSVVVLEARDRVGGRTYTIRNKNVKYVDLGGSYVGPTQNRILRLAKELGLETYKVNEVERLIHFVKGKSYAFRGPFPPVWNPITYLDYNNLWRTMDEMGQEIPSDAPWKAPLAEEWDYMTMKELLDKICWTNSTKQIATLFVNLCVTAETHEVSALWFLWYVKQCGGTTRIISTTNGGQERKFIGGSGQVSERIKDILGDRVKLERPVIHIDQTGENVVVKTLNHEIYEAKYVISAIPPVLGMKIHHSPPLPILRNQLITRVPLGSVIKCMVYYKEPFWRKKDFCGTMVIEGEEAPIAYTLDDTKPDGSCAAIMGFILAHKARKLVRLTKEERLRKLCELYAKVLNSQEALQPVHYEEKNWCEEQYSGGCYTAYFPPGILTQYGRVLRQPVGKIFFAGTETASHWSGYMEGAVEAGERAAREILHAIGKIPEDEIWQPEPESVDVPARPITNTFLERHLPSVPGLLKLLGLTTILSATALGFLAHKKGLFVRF
In words: Inhibition of MAO activity in vivo, acute treatment, MAO-B. More on the design: in a rat brain preparation of MAO; host or cells: rat brain preparation. The following applies: for IC-50 MAO-B: I.P., 1 h after dose.

The test system of data set [10] is passive avoidance response in young rats. In words: Passive avoidance test in young rats (memory). It is filed as in vivo, rat. The text has this: The effect of R(+)-PAI and S(−)-PAI on the improvement or restoration of memory was investigated in the passive avoidance test. If the drug is effective, it increases the latency of response to enter a dark compartment or chamber where an electroshock has been experienced earlier by the rat being tested. The latency of the maximal response is 300 seconds.

For data set [11], the system named is tyramine pressor response in conscious rats. In words: Potentiation of tyramine pressor effect in conscious rats. It is filed as in vivo, rat.
Description: The left carotid artery and jugular vein were cannulated with fine polytene tubing (artery) or fine silicone rubber tubing connected to polyethylene tubing (vein), the distal end of which was brought under the skin to an anchor point behind the neck. The tubing was filled with heparinized saline solution, and plugged with a fine steel rod. The animals were treated with 2. mg chloramphenicol by intramuscular injection and allowed to recover from the operation overnight. The following day, the rats were placed in a high-walled container permitting free movement. […] Following an equilibration period of 30 to 40 minutes, tyramine injections (50 or 100 μg) were given, and blood pressure-responses recorded. An interval of at least 15 minutes was maintained between injections after return of blood pressure to control values. Control pressor responses were established, then one of the drugs was injected intraperitoneally, and tyramine responses were repeated over the next 4 hours. The area under the blood pressure response curve was estimated, and the ratio of this area after treatment to before treatment and to 1 to 3 hours after injection of the compounds, was determined using the average of 3 to 4 values obtained in the control period.
The target of data set [12] is T2, MAO-B. The settings on record: rat whole brain, 1 mg/kg i.p. single dose. As to the method: Activity of MAO-B was determined in whole brain tissues as described hereinabove.
Data set [13] has as its target T1, MAO-A. In words: Inhibition of MAO activity in vivo, acute treatment, MAO-A. The following applies: for IC-50 MAO-A: rat.
The test system of data set [14] is MPTP-induced striatal DA and DOPAC depletions in mice. In words: Suppression of MPTP-induced dopaminergic toxicity (striatal DA and DOPAC). It is filed as in vivo, mouse. The following applies: PAI […] i.p., deprenyl 5 mg/kg i.p., 5 days.
Data set [15] concerns the target T2, MAO-B. In words: Inhibition of MAO activity in vitro, rat brain homogenate, PEA substrate. It is filed as biochemical. More on the design: in a rat brain preparation of MAO; host or cells: rat brain preparation. The protocol:
The MAO enzyme source was a homogenate of rat brain in 0.3M sucrose, which was centrifuged at 600 g for 15 minutes. […] Substrate concentrations used were 50 uM (PEA) and 1 mM (5-HT). In the case of PEA, enzyme concentration was chosen so that not more than 10% of the substrate was metabolized during the course of the reaction. […] The column was washed with 1.5 ml water, the eluates pooled and the radioactive content determined by liquid scintillation spectrometry. Since the amine substrates are totally retained on the column, radioactivity in the eluate indicates the production of neutral and acidic metabolites formed as a result of MAO activity. Activity of MAO in the sample was expressed as a percentage of control activity in the absence of inhibitors after subtraction of appropriate blank values. The activity determined using PEA as substrate is referred to as MAO-B, and that determined using 5-HT as MAO-A.

The subject of data set [16] is MAO. The settings on record: inhibiting oxidative deamination of tyramine, rat brain homogenate; cited from earlier work.
For data set [17], the system named is MAO. The following applies: rat liver homogenate; cited from earlier work.
Where [18] appears, read: pretreatment 1 h before MPTP 30 mg/kg s.c.

Counter-ions that a name gives are not always drawn. Like-named read-outs stand apart in the source and are kept apart here.

As to `O=C1NC(=O)C(c2ccccc2)(c2ccccc2)N1` [phenytoin], the “effect on time to first focal seizure and onset of clonus (proconvulsive activity)” value in [1] was “do not show this effect”.

Turning to `C#CCN(C)C1CCCc2ccccc21` (stereo not drawn) [Example 2-MPAI, N-Methyl-N-propargyl-1-aminotetralin], in [2], the “Relative potency A (+/− or R/S)” value was 3.

For `C#CCNC1CCCc2ccccc21` (racemic) [Example 1-PAT, N-propargyl-1-aminotetralin], the “Relative potency A (+/− or R/S)” value in data set [2] worked out at 4.

On to `NC(=O)N1c2ccccc2C=Cc2ccccc21` [carbamazepine], for which the “effect on time to first focal seizure and onset of clonus (proconvulsive activity)” value in [1] is reported as “do not show this effect”.

Consider `C#CCN[C@H]1CCc2ccccc21` [(S)-PAI HCl, S-(−)-N-Propargyl-1-aminoindan hydrochloride], for which the Percent relaxation is 0 in data set [3] (PAI HCl enantiomer alone, 0.2-4.0 μM); 0 in data set [3] (tyramine 40 μM after 0.2 μM PAI HCl enantiomer); 35 in data set [3] (tyramine 40 μM after 2 μM PAI HCl enantiomer); 33-50 in data set [3] (tyramine 40 μM after 40 μM PAI HCl enantiomer); 40-50 in data set [5] (PAI concentration 20 μM); 60-70 in data set [5] (PAI concentration 60 μM). Moreover, the Percent relaxation in [5] (PAI concentration 100 μM) is 100; in data set [5] (PAI concentration 300 μM) it was 100; in data set [7] (PAI concentration 2 μM) it was 11; in [7] (PAI concentration 4 μM), 15; in [7] (PAI concentration 10 μM), 30; in data set [7] (PAI concentration 20 μM), 20. Also, the Percent relaxation in [7] (PAI concentration 30 μM) stood at 33; in data set [7] (PAI concentration 40 μM), 36; in data set [7] (PAI concentration 100 μM), 71; in data set [7] (PAI concentration 200 μM), 90; in data set [7] (PAI concentration 400 μM), 98; in data set [7] (PAI concentration 1000 μM), 100. In addition, the ED50 anticonvulsant activity in data set [4] amounted to 57 mg/kg. Besides, the gram-tension in [6] (bethanechol 0.8 μM) is 0 gram-tension; in [6] (bethanechol 2 μM), 0 gram-tension; in [6] (bethanechol 4 μM) it was 0 gram-tension; in [6] (bethanechol 8 μM), 0.6 gram-tension; in [6] (bethanechol 40 μM) it was 1.7 gram-tension. The “animals protected from seizures” value in [8] is “Four out of four”.

Turning to `C#CCN[C@@H]1CCc2ccccc21` [R(+)PAI, R(+)-N-propargyl-1-aminoindan], the “inhibition of MAO-B in brain and liver” value in data set [9] (1 mg/kg) is “complete inhibition”. In addition, the “IC-50 MAO-B” value in data set [9] (brain) is 0.07 mg/kg; in data set [9] (liver), 0.06 mg/kg. The “percent increase of latency After Electroshock vs corresponding group” value is recorded as 19% in data set [10] (Protocol A, anoxia-lesioned rats); “+9%” in data set [10] (Protocol A, control rats); “+15%” in [10] (Protocol B, anoxia-lesioned rats); “+23%” in data set [10] (Protocol B, control rats). Further, the “potentiation of tyramine pressor response (in words)” value is given as “no significant potentiation” in [11] (1 mg/kg) and “significant potentiation” in [11] (5 mg/kg). Also, the “time of maximal inhibition of MAO-B after injection” value in data set [12] was 6 h. In data set [13] (rat brain, 0.5 mg/kg oral), the “inhibition of MAO-A” value is given as “no detectable inhibition”. Further, the “IC-50 MAO-A” value is recorded as 1.2 mg/kg in data set [13] (I.P., brain, 1 h after dose); 5 mg/kg in data set [13] (I.P., liver, 1 h after dose); greater than 5 mg/kg in data set [13] (P.O., brain, 2 h after dose); greater than 5 mg/kg in data set [13] (P.O., liver, 2 h after dose). Moreover, in data set [14] (setting [18]), the “striatal DOPAC” value stood at 6.0 ± 0.3 ng/mg protein. The “times more active for inhibition of MAO-B than MAO-A” value in data set [15] is on record as 29 times. The “times more active than S(−)PAI as inhibitor of MAO-B” value in [15] is ~7,000 times; in data set [15] (listed as R(+)-PAI), “about 7000 times”.

As to `C#CCN(C)[C@H](C)Cc1ccccc1` [DEPRENYL R, reference compound], the “times more potent than the S-(+) enantiomer” value in data set [16] is 500 times. Besides, the “times as potent as the S enantiomer” value in data set [17] is 15 times. In addition, in data set [14] (drug alone), the “striatal DA” value amounted to 170.6 ± 7.1 ng/mg protein and the “striatal DOPAC” value is on record as 5.6 ± 0.3 ng/mg protein. Further, in [14] (setting [18]), the “striatal DA” value was 197.0 ± 8.0 ng/mg protein and the “striatal DOPAC” value worked out at 6.4 ± 0.5 ng/mg protein.
